Measured values taken from US10450549B2, “Aryloxyphenoxypropionate tolerance in turfrgass species and use of AAD1 as a selectable marker” (Dow AgroSciences, LLC, priority 2004, dated 2019).

How the values were obtained:
[1] = test system: AAD1 (v3) T1 tobacco (events 721(2)-013.010 and 721(3)-008.005); assay: Segregating AAD1 T1 tobacco response to phenoxy auxin herbicides; assay type: in vivo, Nicotiana tabacum; conditions: rates below 1× field rates (560 g ae/ha); either event
Source text: Two AAD1 (v3) tobacco lines (event 721(2)-013.010 and 721(3)-008.005) were chosen from the T0 generation. The T1 seed was stratified, and sown into selection trays much like that of Arabidopsis (Example 6.4), followed by selective removal of untransformed nulls in this segregating population with 280 g ai/ha glufosinate (PAT selection). Survivors were transferred to individual 3-inch pots in the greenhouse. […] Improved consistency of response is anticipated in T1 plants not having come directly from tissue culture. These plants were compared against wildtype KY 160 tobacco. All plants were sprayed with the use of a track sprayer set at 187 L/ha. […] All applications were formulated in 200 mM Hepes buffer (pH 7.5). Each treatment was replicated 4 times. Plants were evaluated at 3 and 14 days after treatment. Plants were assigned injury rating with respect to stunting, chlorosis, and necrosis. The T1 generation is segregating, so some variable response is expected due to difference in zygosity. (Table 28).

[2] = test system: homozygous T4 lines of Arabidopsis; assay: 2,4-D injury and AAD1 (v3) expression in homozygous T4 Arabidopsis lines; assay type: in vivo, Arabidopsis thaliana; conditions: 800 g ae/ha and above; 14 DAT
Description: An experiment was designed to examine if the level of AAD1 (v3) expression in Arabidopsis varies at different growth stages. A high-tolerance, homozygous, AAD1 (v3) T4 line (id=PAAD1.01.345.163) was grown in greenhouse. […] Two leaves, the 3rd leaf from the top and the 5th leaf from the bottom, were harvested from 5 plants, both treated and untreated, and analyzed by ELISA and Western Blotting (as described in Example 11) experiments at 4, 10, 14, 20 and 25 DAT. […] The protein levels accumulated in older plants with some significant protein degradation at the later time points.
These plants also expressed high level of AAD1 (v3), from 0.1 to 0.25% of (FIG. 9B). On the contrary, the low tolerance line expressed less than 0.1% of AAD1 (v3) in TSP and suffered observable injury.

[3] = test system: AAD1-transformed T0 2095-2 creeping bentgrass events; assay: Quizalofop-p-ethyl postemergence on AAD1 (pDAB5042) creeping bentgrass line 2095-2; assay type: in vivo, Agrostis stolonifera
Description: Selected T0 plants were sprayed with quizalofop-p-ethyl (Assure II®, DUPONT, Wilmington, Del.) at rates ranging from 60 to 2,240 g ae/ha. […] This rate also controls susceptible monocot weed species. Measured amounts were placed individually in 25 mL glass vials and dissolved in a 4 mL volume of 1.0% (v/v) Agri-Dex® Crop Oil Concentrate (COC) from HELENA CHEMICAL (Collierville, Tenn.). Application solutions were prepared by serial dilution of the highest rate applied. One-half the volume of the highest rate stock solution (2 mL) was transferred to a clean 25 mL vial containing an equal volume of 1% COC and the diluted solution was mixed. Additional dilutions were prepared similarly by removing one-half the volume of the previous concentration (2 mL), and adding to an equal volume of 1% COC and mixing. When preparing the lowest concentration, the remaining one-half volume was discarded. All 2 mL stock solutions were further diluted by adding 10 mL aqueous mixture of 1.0% (v/v) COC, so that the final spray solutions were 12 mL in volume and contained 1.0% (v/v) COC.
(§1) Spray solutions were applied to the plant material with an overhead Mandel™ track sprayer equipped with a 8002E nozzles calibrated to deliver 187 L/ha over an application area of 0.503 square meters (m^2) at a spray height of 18 inches (46 cm) above average plant canopy height. Control plants were sprayed in the same manner with the COC blank.
The treated plants and control plants were placed in a greenhouse, and watered by sub-irrigation to prevent wash-off of the test compounds. At various times after application, the condition of the test plants as compared with that of the untreated plants was determined visually and scored on a scale of 0 to 100 percent (where 0 corresponds to no injury or growth inhibition and 100 corresponds to complete kill). Regenerated, non-transformed (NT) ‘Crenshaw’ or elite line 2905-2 creeping bentgrass plants and/or seed-derived clonally propagated plants served as quizalofop sensitive controls. […]

[4] = test system: AAD1-transformed T0 ‘Shamrock’ Kentucky bluegrass events; assay: Haloxyfop-R-methyl postemergence on AAD1 (pDAB3878) T0 Shamrock Kentucky bluegrass, visual % injury; assay type: in vivo; conditions: for injury of event KGB51: 560 g ae/ha
Description: ‘Shamrock’ Kentucky bluegrass T0 pDAB3878 events were maintained vegetatively through division of the crowns and replanting the clonal pieces into fresh growth medium. Clonally propagated plants were maintained by periodic “mowing” of vegetative tissues.
A growth medium was prepared by mixing Promix® and sand in a 2 to 1 ratio. The medium was contained in plastic pots with a surface area of 84.6 square centimeters (cm^2). When required to maintain plant health, a fungicide, insecticide, and/or other chemical or physical treatment was applied to stock plants. The plants were maintained in a greenhouse with an approximate 14 hour photoperiod which was maintained at 24-27° C. during the day and 22-25° C. during the night. Nutrients (Peters Excel® 15-5-15 5-Ca 2-Mg and iron chelate) were applied in the irrigation solution as needed and water was added on a regular basis. Supplemental lighting was provided with overhead metal halide 1000-Watt lamps when PAR dropped below 500.
(§2) The selected T0 plants were sprayed with haloxyfop-R-methyl (Gallant Super®, DOW AGROSCIENCES, INC.) at rates ranging from 140 to 560 g ae/ha. […] This rate would also control susceptible monocot weed species. Measured amounts were placed individually in 25 mL glass vials and dissolved in a 12 mL volume of 1.0% (v/v) Agri-Dex® Crop Oil Concentrate (COC).
as §1
(§3) The treated plants and control plants were placed in a greenhouse and watered by sub-irrigation to prevent wash-off of the test compounds. At various times after application, the condition of the test plants as compared with that of the untreated plants was determined visually and scored on a scale of 0 to 100 percent, where 0 corresponds to no injury or growth inhibition, and 100 corresponds to complete kill. Regenerated, non-transformed (NT) ‘Shamrock’ Kentucky bluegrass plants and/or seed-derived clonally propagated plants served as haloxyfop sensitive controls.

[5] = test system: non-transformed (NT) ‘Shamrock’ Kentucky bluegrass; assay: Haloxyfop-R-methyl on non-transformed Kentucky bluegrass controls; assay type: in vivo; conditions: similar treatment regimes
Description: as §2, §1, §3

O=C(O)COc1ccc(Cl)cc1Cl [2,4-D, 2,4-dichlorophenoxyacetic acid] was tested, and the “injury of T1 AAD1 (v3) tobacco” value [1] was “No injury was observed” and the “response of control plants” value [2] was “died”.

C[C@@H](Oc1ccc(Oc2cnc3cc(Cl)ccc3n2)cc1)C(=O)O [quizalofop] was tested, and the “mean injury, pDAB5042 2095-2 events” value ([3]; 120, 480 and 960 g ae/ha, 22 to 50 DAA) was “less than 25%”, the “injury of 48 of the 53 individual 2095-2 events” value ([3]; 120 g ae/ha) was at most 20% and the “injury of four 2095-2 events” value ([3]; 120 g ae/ha) was “between about 25% and 35% injury”.

CC(Oc1ccc(Oc2ncc(C(F)(F)F)cc2Cl)cc1)C(=O)O (stereo not shown) [haloxyfop] was tested, and the “mean injury, pDAB3878 Shamrock Kentucky bluegrass events” value ([4]; 140 and 560 g ae/ha, 11, 14 and 20 DAA) was “less than 15%”, the “injury of event KGB51” value ([4]; 11 DAA) was “about 20%” and the “injury of event KGB51” value ([4]; 14 DAA) was about 30%. The “injury of event KGB51” value ([4]; 20 DAA) was about 30% and the “injury of control, non-transgenic plants” value [5] was 60-100%.
